The source of these data is patent US20240124427A1, “HYDROXYHETEROCYCLOALKANE-CARBAMOYL DERIVATIVES” (Idorsia Pharmaceuticals Ltd, priority 2021, published 2024).

Each structure is given as a SMILES string. Where two headings read alike, the source gives them in different places.

The target of assay [1] is human Gal-3 (hGal-3) (Homo sapiens (Human), UniProt P17931). Description: Competitive binding assay: biotinylated hGal-3 binding to microplate-adsorbed asialofetuin (ASF). A digest of the protocol:
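Spectrophotometric read-out using streptavidin-peroxidase and ABTS quantifies how much biotin-hGal-3 remains bound to microplate asialofetuin after 3 h at 4 °C with compound present. Values are means of repeated IC50 determinations.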

Assay [2] concerns the target human Gal-1 (hGal-1) (Homo sapiens, UniProt P09382). Type of assay: binding.
[3] abbreviates: Activity on hGal-3, mean values of several measurements, mixture of diastereomers measured where not separated.

Sequence of human Gal-1 (hGal-1) (P09382 2-135 limits assumed): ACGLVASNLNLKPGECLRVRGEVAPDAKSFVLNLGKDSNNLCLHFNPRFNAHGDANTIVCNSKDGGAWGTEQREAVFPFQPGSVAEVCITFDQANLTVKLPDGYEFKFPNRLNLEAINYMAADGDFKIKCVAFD
Sequence of human Gal-3 (hGal-3) (P17931 whole entry): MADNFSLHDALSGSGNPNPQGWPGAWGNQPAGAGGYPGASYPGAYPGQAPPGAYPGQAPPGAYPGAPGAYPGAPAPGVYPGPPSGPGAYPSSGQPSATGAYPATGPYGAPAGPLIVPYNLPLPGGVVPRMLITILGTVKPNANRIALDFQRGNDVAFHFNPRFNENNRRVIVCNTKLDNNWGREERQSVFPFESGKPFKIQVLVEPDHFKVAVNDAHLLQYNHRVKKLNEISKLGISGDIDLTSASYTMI

Regarding `CO[C@@H]1[C@@H](n2cc(-c3cc(F)c(C)c(F)c3)nn2)[C@@H](O)[C@@H](CO)O[C@H]1C(=O)N(c1cc(C)cc(Br)c1)[C@H]1CNC[C@@H]1O` [Example 70], the IC50 (usually the concentration that inhibits the measured activity by half) in assay [1] is 56 nM; in assay [2], 1800 nM. For `CO[C@@H]1[C@@H](n2cc(-c3cc(F)c(F)c(F)c3)nn2)[C@@H](O)[C@@H](CO)O[C@H]1C(=O)N(c1cc(Br)cc(Br)c1)[C@H]1CN(C(C)=O)C[C@@H]1O` [Example 84], the IC50 is 70 nM in assay [1] and 1210 nM in assay [2]. Consider `CO[C@@H]1[C@@H](n2cc(-c3cc(F)c(C)c(F)c3)nn2)[C@@H](O)[C@@H](CO)O[C@H]1C(=O)N(c1cc(Cl)cc(Cl)c1)[C@@H]1CN(C(C)=O)C[C@H]1O` [Example 85], for which the IC50 turned out to be 327 nM in assay [1] and 13400 nM in assay [2]. Regarding `CO[C@@H]1[C@@H](n2cc(-c3cc(F)c(Cl)c(F)c3)nn2)[C@@H](O)[C@@H](CO)O[C@H]1C(=O)N(c1cc(Cl)cc(Cl)c1)[C@@H]1CN(C(C)=O)C[C@H]1O` [Example 86], the IC50 in assay [1] was 64 nM; in assay [2], 1780 nM. The matching figures for `CO[C@@H]1[C@@H](n2cc(-c3cc(F)c(Cl)c(F)c3)nn2)[C@@H](O)[C@@H](CO)O[C@H]1C(=O)N(c1cc(Br)cc(Br)c1)[C@@H]1CN(C(C)=O)C[C@H]1O` [Example 87]: 36 nM and 1860 nM. On to `CO[C@@H]1[C@@H](n2cc(-c3ccc(Cl)c(Cl)c3)nn2)[C@@H](O)[C@@H](CO)O[C@H]1C(=O)N(c1cc(Cl)cc(Cl)c1)[C@@H]1CN(C(C)=O)C[C@H]1O` [Example 88], for which the IC50 in assay [1] turned out to be 71 nM; in assay [2], 657 nM.

`CO[C@@H]1[C@@H](n2cc(-c3cc(F)c(F)c(F)c3)nn2)[C@@H](O)[C@@H](CO)O[C@H]1C(=O)N(c1cc(Cl)cc(C#N)c1)[C@H]1CCOC[C@@H]1O` [Example 100, (2R,3R,4S,5R,6R)-N-(3-chloro-5-cyanophenyl)-5-hydroxy-6-(hydroxymethyl)-N-((3R,4S)-3-hydroxytetrahydro-2H-pyran-4-yl)-3-methoxy-4-(4-(3,4,5-trifluorophenyl)-1H-1,2,3-triazol-1-yl)tetrahydro-2H-pyran-2-carboxamide]: the IC50 in assay [1] (setting [3]) amounted to 16 nM. As to `CO[C@@H]1[C@@H](n2cc(-c3cc(F)c(F)c(F)c3)nn2)[C@@H](O)[C@@H](CO)O[C@H]1C(=O)N(c1cc(Br)cc(C#N)c1)[C@H]1CCOC[C@@H]1O` [Example 101, (2R,3R,4S,5R,6R)-N-(3-bromo-5-cyanophenyl)-5-hydroxy-6-(hydroxymethyl)-N-((3R,4S)-3-hydroxytetrahydro-2H-pyran-4-yl)-3-methoxy-4-(4-(3,4,5-trifluorophenyl)-1H-1,2,3-triazol-1-yl)tetrahydro-2H-pyran-2-carboxamide], the IC50 in assay [1] (setting [3]) stood at 14 nM. With `CO[C@@H]1[C@@H](n2cc(-c3cc(F)c(F)c(F)c3)nn2)[C@@H](O)[C@@H](CO)O[C@H]1C(=O)N(c1cc(C)cc(Br)c1)[C@H]1CCOC[C@@H]1O` [Example 102, (2R,3R,4S,5R,6R)-N-(3-bromo-5-methylphenyl)-5-hydroxy-6-(hydroxymethyl)-N-((3R,4S)-3-hydroxytetrahydro-2H-pyran-4-yl)-3-methoxy-4-(4-(3,4,5-trifluorophenyl)-1H-1,2,3-triazol-1-yl)tetrahydro-2H-pyran-2-carboxamide], the IC50 in assay [1] (setting [3]) turned out to be 14 nM. Regarding `CO[C@@H]1[C@@H](n2cc(-c3cc(F)c(F)c(F)c3)nn2)[C@@H](O)[C@@H](CO)O[C@H]1C(=O)N(c1cc(Cl)cc(Cl)c1)[C@@H]1CCOC[C@H]1O` [Example 103, (2R,3R,4S,5R,6R)-N-(3,5-dichlorophenyl)-5-hydroxy-6-(hydroxymethyl)-N-((3S,4R)-3-hydroxytetrahydro-2H-pyran-4-yl)-3-methoxy-4-(4-(3,4,5-trifluorophenyl)-1H-1,2,3-triazol-1-yl)tetrahydro-2H-pyran-2-carboxamide], the IC50 in assay [1] (setting [3]) stood at 299 nM.

Take `CO[C@@H]1[C@@H](n2cc(-c3cc(F)c(F)c(F)c3)nn2)[C@@H](O)[C@@H](CO)O[C@H]1C(=O)N(c1cc(C)cc(Br)c1)[C@@H]1CCOC[C@H]1O` [Example 104, (2R,3R,4S,5R,6R)-N-(3-bromo-5-methylphenyl)-5-hydroxy-6-(hydroxymethyl)-N-((3S,4R)-3-hydroxytetrahydro-2H-pyran-4-yl)-3-methoxy-4-(4-(3,4,5-trifluorophenyl)-1H-1,2,3-triazol-1-yl)tetrahydro-2H-pyran-2-carboxamide]: the IC50 in assay [1] (setting [3]) stood at 256 nM. As to `CO[C@@H]1[C@@H](n2cc(-c3cc(F)c(F)c(F)c3)nn2)[C@@H](O)[C@@H](CO)O[C@H]1C(=O)N(c1cc(Cl)cc(Cl)c1)[C@H]1COCC[C@@H]1O` [Example 105, (2R,3R,4S,5R,6R)-N-(3,5-dichlorophenyl)-5-hydroxy-6-(hydroxymethyl)-N-((3S,4S)-4-hydroxytetrahydro-2H-pyran-3-yl)-3-methoxy-4-(4-(3,4,5-trifluorophenyl)-1H-1,2,3-triazol-1-yl)tetrahydro-2H-pyran-2-carboxamide], the IC50 in assay [1] (setting [3]) was found to be 18 nM.

Regarding `CO[C@@H]1[C@@H](n2cc(-c3cc(F)c(F)c(F)c3)nn2)[C@@H](O)[C@@H](CO)O[C@H]1C(=O)N(c1cc(C)cc(Br)c1)[C@H]1COCC[C@@H]1O` [Example 106, (2R,3R,4S,5R,6R)-N-(3-bromo-5-methylphenyl)-5-hydroxy-6-(hydroxymethyl)-N-((3S,4S)-4-hydroxytetrahydro-2H-pyran-3-yl)-3-methoxy-4-(4-(3,4,5-trifluorophenyl)-1H-1,2,3-triazol-1-yl)tetrahydro-2H-pyran-2-carboxamide], the IC50 in assay [1] (setting [3]) came out at 13 nM. For the compound `CO[C@@H]1[C@@H](n2cc(-c3cc(F)c(F)c(F)c3)nn2)[C@@H](O)[C@@H](CO)O[C@H]1C(=O)N(c1cc(Cl)cc(Cl)c1)[C@@H]1COCC[C@H]1O` [Example 107, (2R,3R,4S,5R,6R)-N-(3,5-dichlorophenyl)-5-hydroxy-6-(hydroxymethyl)-N-((3R,4R)-4-hydroxytetrahydro-2H-pyran-3-yl)-3-methoxy-4-(4-(3,4,5-trifluorophenyl)-1H-1,2,3-triazol-1-yl)tetrahydro-2H-pyran-2-carboxamide], the IC50 in assay [1] (setting [3]) was 217 nM. On the same count and under the same terms, the result for `CO[C@@H]1[C@@H](n2cc(-c3cc(F)c(F)c(F)c3)nn2)[C@@H](O)[C@@H](CO)O[C@H]1C(=O)N(c1cc(C)cc(Br)c1)[C@@H]1COCC[C@H]1O` [Example 108, (2R,3R,4S,5R,6R)-N-(3-bromo-5-methylphenyl)-5-hydroxy-6-(hydroxymethyl)-N-((3R,4R)-4-hydroxytetrahydro-2H-pyran-3-yl)-3-methoxy-4-(4-(3,4,5-trifluorophenyl)-1H-1,2,3-triazol-1-yl)tetrahydro-2H-pyran-2-carboxamide] reads 315 nM. The same measure, in the same setting: then `CO[C@@H]1[C@@H](n2cc(-c3cc(F)c(F)c(F)c3)nn2)[C@@H](O)[C@@H](CO)O[C@H]1C(=O)N(c1cc(Cl)cc(Cl)c1)[C@H]1CNCC[C@@H]1O` [Example 113, (2R,3R,4S,5R,6R)-N-(3,5-dichlorophenyl)-5-hydroxy-6-(hydroxymethyl)-N-((3S,4S)-4-hydroxypiperidin-3-yl)-3-methoxy-4-(4-(3,4,5-trifluorophenyl)-1H-1,2,3-triazol-1-yl)tetrahydro-2H-pyran-2-carboxamide], with 13 nM.

Regarding `CO[C@@H]1[C@@H](n2cc(-c3cc(F)c(F)c(F)c3)nn2)[C@@H](O)[C@@H](CO)O[C@H]1C(=O)N(c1cc(C)cc(Br)c1)[C@H]1CNCC[C@@H]1O` [Example 114, (2R,3R,4S,5R,6R)-N-(3-bromo-5-methylphenyl)-5-hydroxy-6-(hydroxymethyl)-N-((3S,4S)-4-hydroxypiperidin-3-yl)-3-methoxy-4-(4-(3,4,5-trifluorophenyl)-1H-1,2,3-triazol-1-yl)tetrahydro-2H-pyran-2-carboxamide], the IC50 in assay [1] (setting [3]) came to 9 nM. As for `CO[C@@H]1[C@@H](n2cc(-c3cc(F)c(F)c(F)c3)nn2)[C@@H](O)[C@@H](CO)O[C@H]1C(=O)N(c1cc(C)cc(Br)c1)[C@@H]1CNCC[C@H]1O` [Example 115, (2R,3R,4S,5R,6R)-N-(3-bromo-5-methylphenyl)-5-hydroxy-6-(hydroxymethyl)-N-((3R,4R)-4-hydroxypiperidin-3-yl)-3-methoxy-4-(4-(3,4,5-trifluorophenyl)-1H-1,2,3-triazol-1-yl)tetrahydro-2H-pyran-2-carboxamide], the IC50 in assay [1] (setting [3]) was 196 nM.
